According to patent CN110590914A, “一种抑制和消除幽门螺杆菌生物膜生成的蜂蜜和多肽组合物” (Anhui University of Science and Technology, priority 2019, dated 2019):
Ends that are not written are not given here.

Test system: 幽门螺杆菌SS1菌株
Test: Inhibition of Helicobacter pylori biofilm formation (crystal violet staining, A595)
Format: cell-based
Settings: peptide 5, 10, 20, 40, 80μg/mL (Fig. 1)

Question: KRIVQRIKDIKP [实施例4] was tested. Which “Concentration dependence of inhibition of biofilm formation” value did it give?
Answer: 随着多肽的浓度增大，对生物膜生成的抑制率不断增加
